Assay results as given in patent US7232912B2, “Indazole compounds, pharmaceutical compositions, and methods for mediating or inhibiting cell proliferation” (Agouron Pharmaceuticals, Inc., priority 2000, dated 2007).

Columns and labels:
CDK4/cyclin D3 = CDK4/cyclin D3 (Homo sapiens, UniProt P11802); assay: Inhibition of CDK4/Cyclin D Retinoblastoma Kinase Activity; format: biochemical; conditions: for Ki: apparent Ki; for inhibition at 10 µM: read-out: CDK4/D % inhibition at 10 μM
Experimental: (§1) Cyclin-dependent kinase activity was measured by quantifying the enzyme-catalyzed, time-dependent incorporation of radioactive phosphate from [^32P]ATP or [^33P]ATP into a protein substrate. Unless noted otherwise, assays were performed in 96-well plates in a total volume of 50 μL, in the presence of 10 mM HEPES (N-[2-hydroxyethyl]piperazine-N′-[2-ethanesulfonic acid]) (pH 7.4), 10 mM MgCl2, 25 μM adenosine triphosphate (ATP), 1 mg/mL ovalbumin, 5 μg/mL leupeptin, 1 mM dithiothreitol, 10 mM beta-glycerophosphate, 0.1 mM sodium vanadate, 1 mM sodium fluoride, 2.5 mM ethylene glycol-bis(β-aminoethyl ethKer)-N,N,N′N′-tetraacetic acid (EGTA), 2% (v/v) dimethylsulfoxide, and 0.03–0.4 μCi [^32/33P]ATP per reaction. Reactions were initiated with appropriate enzyme, incubated at 30° C., and terminated after 20 minutes by the addition of ethylenediaminetetraacetic acid (EDTA) to 250 mM. The phosphorylated substrate was then captured on a nitrocellulose or phosphocellulose membrane using a 96-well filtration manifold, and unincorporated radioactivity was removed by repeated washing with 0.85% phosphoric acid. Radioactivity was quantified by exposing the dried membranes to a phosphorimager.
(§2) Apparent Ki values were measured by assaying enzyme activity in the presence of different inhibitor compound concentrations and subtracting the background radioactivity measured in the absence of enzyme. Inhibition data were fit to an equation for competitive inhibition using Kaleidagraph (Synergy Software), or were fit to an equation for competitive tight-binding inhibition using the software KineTic (BioKin, Ltd.).
Inhibition of CDK4/Cyclin D Retinoblastoma Kinase Activity
A complex of human CDK4 and cyclin D3, or a complex of human CDK4 and genetically truncated (1–264) cyclin D3, was purified using traditional biochemical chromatographic techniques from insect cells that had been co-infected with the corresponding baculovirus expression vectors (see e.g., Meijer and Kim, “Chemical Inhibitors of Cyclin-Dependent Kinases,” Methods in Enzymol,. vol. 283 (1997), pp. 113–128.). The enzyme complex (5 or 50 nM) was assayed with 0.3–0.5 μg of purified recombinant retinoblastoma protein fragment (Rb) as a substrate. The engineered Rb fragment (residues 386–928 of the native retinoblastoma protein; 62.3 kDa) contains the majority of the phosphorylation sites found in the native 106-kDa protein, as well as a tag of six histidine residues for ease of purification. Phosphorylated Rb substrate was captured by microfiltration on a nitrocellulose membrane and quantified using a phosphorimager as described above. For measurement of tight-binding inhibitors, the enzyme complex concentration was lowered to 5 nM, and the assay duration was extended to 60 minutes, during which the time-dependence of product formation was linear.

CDK2/cyclin A = target: T1, CDK2/cyclin A (Homo sapiens, UniProt P24941); assay: Inhibition of CDK2/Cyclin A Retinoblastoma Kinase Activity; format: biochemical; conditions: for Ki: apparent Ki; for inhibition at 10 µM: read-out: CDK2/A % inhibition at 10 μM
T1 construct: made in house; host or cells: CDK2: insect cells (baculovirus); cyclin A: E. coli
Experimental: as §1, §2
Inhibition of CDK2/Cyclin A Retinoblastoma Kinase Activity
CDK2 was purified using published methodology (Rosenblatt et al., “Purification and Crystallization of Human Cyclin-dependent Kinase 2,” J. Mol. Biol., vol. 230, 1993, pp. 1317–1319) from insect cells that had been infected with a baculovirus expression vector. […] A complex of CDK2 and proteolyzed cyclin A was prepared and purified by gel filtration. The substrate for this assay was the same Rb substrate fragment used for the CDK4 assays, and the methodology of the CDK2/cyclin A and the CDK4/cyclin D3 assays was essentially the same, except that CDK2 was present at 150 nM or 5 nM. Ki values were measured as described above.

HCT 116 cell line = assay: Inhibition of Cell Growth (MTT tetrazolium salt assay); format: cell-based; conditions: Homo sapiens, HCT 116, MTT; for IC50: 50% inhibition of growth, read-out: HCT 116 IC50; for IC90: read-out: HCT 116 IC90
Experimental: Inhibition of Cell Growth: Assessment of Cytotoxicity
Inhibition of cell growth was measured using the tetrazolium salt assay, which is based on the ability of viable cells to reduce 3-(4,5-dimethylthiazol-2-yl)-2,5-[2H]-diphenyltetrazolium bromide (MTT) to formazan (Mossman, Journal of Immunological Methods, vol. 65 (1983), pp. 55–58). The water-insoluble purple formazan product was then detected spectrophotometrically. The HCT 116 cell line was grown in 96-well plates. Cells were plated in the appropriate medium at a volume of 135 μl/well in McCoy's 5A Medium. Plates were incubated for four hours before addition of inhibitor compounds. Different concentrations of inhibitor compounds were added in 0.5% (v/v) dimethylsulfoxide (15 μL/well), and cells were incubated at 37° C. (5% CO2) for four to six days (depending on cell type). At the end of the incubation, MTT was added to a final concentration of 0.2 mg/mL, and cells were incubated for 4 hours more at 37° C. After centrifugation of the plates and removal of medium, the absorbance of the formazan (solubilized in dimethylsulfoxide) was measured at 540 nm. The concentration of inhibitor compound causing 50% inhibition of growth was determined from the linear portion of a semi-log plot of inhibitor concentration versus percentage inhibition. All results were compared to control cells treated only with 0.5% (v/v) dimethylsulfoxide.

Chain of CDK4/cyclin D3 (P11802 2-303 limits assumed): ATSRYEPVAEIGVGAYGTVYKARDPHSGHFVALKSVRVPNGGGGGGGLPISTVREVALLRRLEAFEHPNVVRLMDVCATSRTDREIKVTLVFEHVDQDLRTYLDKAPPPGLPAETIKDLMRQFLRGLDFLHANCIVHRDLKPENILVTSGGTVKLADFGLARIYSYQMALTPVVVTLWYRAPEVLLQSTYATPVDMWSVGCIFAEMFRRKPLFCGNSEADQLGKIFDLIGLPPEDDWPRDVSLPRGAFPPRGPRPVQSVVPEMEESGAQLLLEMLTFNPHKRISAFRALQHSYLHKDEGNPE
Chain of CDK4/cyclin D3 (P30281 1-264 limits assumed, further chain): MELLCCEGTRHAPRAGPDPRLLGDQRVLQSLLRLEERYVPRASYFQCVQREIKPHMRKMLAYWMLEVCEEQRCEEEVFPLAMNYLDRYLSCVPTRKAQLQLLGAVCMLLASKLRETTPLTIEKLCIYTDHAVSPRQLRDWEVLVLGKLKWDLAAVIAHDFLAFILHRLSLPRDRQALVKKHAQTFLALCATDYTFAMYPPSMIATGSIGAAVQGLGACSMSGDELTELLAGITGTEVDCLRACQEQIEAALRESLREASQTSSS

SMILES	Ki (CDK4/cyclin D3)	Ki (CDK2/cyclin A)	IC90 (HCT 116 cell line)	also measured
Cc1ccccc1-c1ccc2[nH]nc(-c3ccccc3)c2c1 [Example 11, 5-(2-Methylphenyl)-3-phenyl-1H-indazole]		2.6 µM		inhibition at 10 µM (CDK4/cyclin D3): 39%
COc1ccc(-c2ccc3[nH]nc(-c4nc5ccccc5[nH]4)c3c2)cc1 [Example 7′, 3-(1H-Benzoimidazol-2-yl)-5-(4-methoxyphenyl)-1H-indazole]	1.2 µM	0.79 µM		
c1ccc2c(-c3ccc4[nH]nc(-c5nc6c(Cn7ccnc7)cccc6[nH]5)c4c3)cncc2c1 [Example 40, 4-[3-(4-Imidazol-1-ylmethyl-1H-benzoimidazol-2-yl)-1H-indazol-5-yl]-isoquinoline]	0.0022 µM	0.00038 µM		
Cc1c(-c2ccc3[nH]nc(-c4nc5ccccc5[nH]4)c3c2)ccc(CCCO)c1O [Example 26, 3-[3-(1H-Benzoimidazol-2-yl)-1H-indazol-5-yl]-6-(3-hydroxy-propyl)-2-methyl-phenol]	0.083 µM	0.072 µM	5 µM	IC50 (HCT 116 cell line): 2.8 µM
Fc1cccc(F)c1-c1ccc2[nH]nc(-c3ccccc3)c2c1 [Example 83, 5-(2,6-Difluorophenyl)-3-Phenyl-1H-indazole]				inhibition at 10 µM (CDK4/cyclin D3): 30%; inhibition at 10 µM (CDK2/cyclin A): 30%
c1ccc(-c2n[nH]c3ccc(-c4cccnc4)cc23)cc1 [Example 14b, 3-Phenyl-5-(pyrid-3-yl)-1H-indazole]				inhibition at 1 µM (CDK4/cyclin D3; read-out: CDK4/D % inhibition at 1 μM): 20%
O=[N+]([O-])c1ccc2[nH]nc(-c3ccc[nH]3)c2c1 [18b′, 5-Nitro-3-(2-Pyrrolyl)-1H-indazole]	6.6 µM	3.3 µM		
Cc1cnccc1-c1ccc2[nH]nc(/C=C/c3ccccc3)c2c1 [Example 41, 5-(3-Methyl-pyridin-4-yl)-3-(E)-styryl-1H-indazole]	0.078 µM	0.25 µM		
Oc1ccc(-c2ccc3[nH]nc(-c4nc5ccccc5[nH]4)c3c2)cc1 [8′, 4-[3-(1H-Benzoimidazol-2-yl)-1H-indazol-5-yl]-phenol]	0.59 µM	0.37 µM		
Cc1cc(O)ccc1-c1ccc2[nH]nc(-c3ccccc3)c2c1 [Example 13, 5-(4-Hydroxy-2-methylphenyl)-3-phenyl-1H-indazole]	3.4 µM	2.7 µM		
C(=C\c1ccc2[nH]nc(/C=C/c3ccccc3)c2c1)/c1ccccc1 [Example 2, 3,5-Distyryl-1H-Indazole]	7.9 µM			
COc1cccc(-c2ccc3[nH]nc(-c4ccccc4)c3c2)c1 [Example 86, 5-(3-Methoxyphenyl)-3-(phenyl)-1H-indazole]				inhibition at 10 µM (CDK4/cyclin D3): 18%; inhibition at 10 µM (CDK2/cyclin A): 45%
COc1cccc(-c2ccc3[nH]nc(-c4nc5ccccc5[nH]4)c3c2)c1C [Example 9′, 3-(1H-Benzoimidazol-2-yl)-5-(3-methoxy-2-methyl-phenyl)-1H-indazole]	2.2 µM	0.67 µM		
c1ccc(-c2n[nH]c3ccc(-c4ccncc4)cc23)cc1 [Example 14, 3-Phenyl-5-(Pyrid-4-yl)-1H-indazole]	2.4 µM	2.5 µM		
FC(F)(F)c1ccccc1-c1ccc2[nH]nc(-c3ccccc3)c2c1 [Example 12, 3-Phenyl-5-[2-(trifluormethyl)phenyl]-1H-indazole]		6.3 µM		CDK4/D % inhibition at 5 μM (CDK4/cyclin D3; at 5 μM): 19%
c1c[nH]c(-c2n[nH]c3ccc(-c4ccncc4)cc23)c1 [Example 18, 5-(4Pyridyl)-3-(2-Pyrrolyl)-1H-indazole]	0.96 µM			

Continued, in another order:

Ki (CDK4/cyclin D3)	Ki (CDK2/cyclin A)	IC90 (HCT 116 cell line)	SMILES	also measured
0.22 µM	0.0012 µM	1.3 µM	CC(=O)N1CCCc2c(-c3ccc4[nH]nc(-c5nc6ccccc6[nH]5)c4c3)cncc21 [Example 63, 1-{5-[3-(1H-Benzoimidazol-2yl)-1H-indazol-5-yl]-3,4-dihydro-2H-[1,7]naphthyridin-1-yl}-ethanone]	IC50 (HCT 116 cell line): 0.43 µM
0.014 µM		0.22 µM	CCNCc1cncc(-c2ccc3[nH]nc(-c4nc5c(C(=O)NC)cccc5[nH]4)c3c2)c1C [Example 80, 2-[5-(5-Ethylaminomethyl-4-methyl-pyridin-3-yl)-1H-indazol-3-yl]-1H benzoimidazole-4carboxylic acid methylamide]	
0.11 µM		> 0.5 µM	CCNCc1cncc(-c2ccc3[nH]nc(-c4nc5c(NC(C)=O)cccc5[nH]4)c3c2)c1C [Example 82, N-2-[5-(5-Ethylaminomethyl-4-methyl-pyridin-3-yl)-1H-indazol-3-yl-1 benzoimidazol-4-yl]-acetamide]	
0.0058 µM	0.00038 µM	0.5 µM	Cc1c(O)cncc1-c1ccc2[nH]nc(-c3nc4ccccc4[nH]3)c2c1 [Example 77, 5-[3-(1H-Benzoimidazol-2-yl)-1H-indazol-5-yl]-4-methyl-pyridin-3-ol]	IC50 (HCT 116 cell line): 0.31 µM
0.0042 µM	0.0019 µM	0.42 µM	Cc1c(CNCC(C)C)cncc1-c1ccc2[nH]nc(-c3nc4ccccc4[nH]3)c2c1 [Example 87, {5-[3-(1H-Benzoimidazol-2-yl)-1H-indazol-5-yl]-4-methyl-pyridin-3-ylmethyl}-isobutyl-amine]	IC50 (HCT 116 cell line): 0.16 µM
0.036 µM	0.001 µM	1.3 µM	CC(=O)Nc1cccc2c(-c3ccc4[nH]nc(-c5nc6ccccc6[nH]5)c4c3)cncc12 [Example 56, N-{4-[3-(1H-Benzoimidazol-2-yl)1H-indazol-5-yl]-isoquinolin-8-yl}-acetamide]	IC50 (HCT 116 cell line): 0.48 µM
0.05 µM	0.0037 µM	2.4 µM	Cc1c(-c2ccc3[nH]nc(-c4nc5ccccc5[nH]4)c3c2)cncc1-c1ccccn1 [Example 62]	IC50 (HCT 116 cell line): 1 µM
0.055 µM	0.001 µM	1.6 µM	c1ccc2c(-c3ccc4[nH]nc(-c5nc6c([nH]5)CCCC6)c4c3)cncc2c1 [Example 66, 4-[3-(4,5,6,7-Tetrahydro-1H-benzoimidazol-2-yl)-1H-indazol-5-yl]-isoquinoline]	IC50 (HCT 116 cell line): 0.49 µM
1.1 µM	0.4 µM		Oc1cc(F)cc(F)c1-c1ccc2[nH]nc(-c3nc4ccccc4[nH]3)c2c1 [Example 51]	
16 µM	6.6 µM		c1ccc(CNc2ccc3[nH]nc(-c4ccc[nH]4)c3c2)cc1 [Example 85, 5-(Benzylamino)-3-(2-Pyrrolyl)-1H-indazole]	
	13 µM		O=[N+]([O-])c1ccc2[nH]nc(-c3ccccc3)c2c1 [Intermediate 11a, 5-Nitro-3-phenyl-1H-indazole]	inhibition at 100 µM (CDK4/cyclin D3; read-out: CDK4/D % inhibition at 100 μM): 48%
